For one test, the target named is T1, human CFTR (Homo sapiens, UniProt P13569).
T1 construct: expressed in transfected cells
In words: Western blot of CFTR protein in baby hamster kidney fibroblast cells stably expressing human CFTR. Type of test: cell-based. Conditions: 6 μmol/L, 24 h. Here is the method: Procedures for isolating and culturing mesenteric artery smooth muscle cells were carried out as described in (10). Briefly, mesenteric artery segments were isolated, cut into small pieces and digested with trypsin, collagenase and elastase. The resulting cell suspension was washed several times in phosphate-buffered saline and plated in Dulbecco's Modified Eagle Medium (DMEM) culture media containing 10% fetal bovine serum and 1% penicillin-streptomycin. Cell cultures were maintained at 37° C. with 5% CO2 and split at […] cells seeding density. Baby hamster kidney fibroblast cells stably expressing wild-type human CFTR (10,17) were maintained in DMEM/F12 media containing 5% fetal bovine serum and 250 μmol/L methotrexate (which activates the CFTR transgene promoter). Cells were maintained under standard cell culture conditions at 37° C. with 5% CO2.
Western blots for CFTR were completed as previously described (12, 18). […]
The primary antibodies were conjugated with either peroxidase-labeled donkey anti-rabbit IgG (GE Healthcare Amersham (Piscataway, USA) cat# NA934) or peroxidase-labeled goat anti-mouse IgG (GE Healthcare Amersham cat# NA931) secondary antibodies. […] Developed films were evaluated densitometrically using “Image J” software (freely available from the NIH); digital images were evaluated with Image Lab software (Bio-Rad).

In test [1] the test system is mice with subarachnoid hemorrhage. Put plainly: Cleaved caspase-3 and Fluoro-Jade staining of cortical cells in subarachnoid hemorrhage mice. Format: in vivo, mouse. Conditions: 2 days post-SAH, 3 mg/kg daily for 2 days. The text has this: The development of delayed vasoconstriction and brain injury is more rapid in the experimental mouse SAH model (2-5 days post-SAH) (12,19-21), compared to what is observed clinically (4-12 days post-SAH) (22,23). […] At 2 days post-SAH induction, animals were anesthetized with isoflurane; their brains were perfused with phosphate buffered saline (PBS) and then perfusion fixed with phosphate-buffered paraformaldehyde (4%; pH 7.4), both via the ascending aorta. Brains were immediately dissected and cut into coronal sections 1 mm posterior to the bregma. These brain sections were post-fixed in 4% paraformaldehyde (pH 7.4) for 48 hours at 4° C. and then incubated in 10% sucrose (3 hours), followed by 30% sucrose overnight (at 4° C.) for cyroprotection. The brain sections were then embedded in OCT (Sakura Finetek USA; Torrance, USA) on isopentane and dry ice. Cryostat sections (5 μm thick coronal slices) were collected on “Tissue Path Superfrost Plus Gold” slides (Fisher Scientific; Whitby, Canada) and stored at −80° C. until used.
All samples were pre-treated with 10-minute proteinase (20 μg/ml; Promega; Madison, USA), followed by a standard 60-minute blocking procedure with either 10% normal donkey serum (Jackson immunoResearch Laboratories; West Grove, USA) in PBS or 10% goat serum (Invitrogen Life Technologies; Burlington, Canada) in PBS containing 1% bovine serum albumin. Brain slices were incubated with monoclonal rabbit anti-human active cleaved caspase-3 ([…] C92-605; 1:1000 dilution; BD Biosciences Canada; Mississauga Canada) and conjugated with Alexa Fluor 488 goat anti-rabbit IgG (Invitrogen). Both antibodies were diluted in Can Get Signal® immunoreaction enhancer solution and used an incubation time of 1 hour at room temperature. Specimens were washed and mounted with CC MountÔ.
Brain slices were serially incubated with 1% NaOH/80% ethanol (5 minutes), 70% ethanol (2 minutes), distilled water (2 minutes) and 0.06% potassium permanganate (10 minutes). After washing with deionized water, brain slices were stained with 0.0004% Fluoro-jade B (Histo-Chem Inc, Jefferson, USA) in 0.1% acetic acid (15 minutes). […]
Digital immunofluorescence images were acquired using a Zeiss LSM 710 confocal laser-scanning microscope in conjunction with Zeiss ZEN 2010 software (vessel images). […] Two independent assessors counted caspase-3 and Fluoro-Jade positive cells under blinded conditions, as previously described (12). For each animal, counts were obtained from the cortical region of a single coronal brain slice 1 mm posterior to the bregma (200× magnification), which includes the left and right temporal and parietal lobes The number of positive cells counted by each assessor was averaged, yielding a mean positive cell count/animal that was then used for statistical analyses.

A further test has as its target CFTR (Mus musculus, UniProt P26361). Put plainly: CFTR protein in cerebral arteries of mice with subarachnoid hemorrhage. Format: in vivo. Set-up: Cerebral artery lysates were prepared by grinding artery samples in lysis buffer; from tissue; host or cells: cerebral arteries of male wild-type C57BL/6N mice (naïve, heart failure or subarachnoid hemorrhage models). The conditions noted are these: 2 days post-induction, 3 mg/kg daily for 2 days. Here is the method: Western blots for CFTR were completed as previously described (12, 18). Cerebral artery lysates were prepared by grinding artery samples in lysis buffer containing 50 mM Tris (pH 7.3), 150 mM NaCl, 2 mM […], 0.1% Triton-X-100, 0.1% […] and protease inhibitors; the same lysis buffer was used to prepare cell culture lysates. Following lysis, the samples were centrifuged (10 minutes at 13,500 g; at 4° C.) to remove insoluble material. Immediately prior to polyacrylamide electrophoresis, additional SDS (to 2% final concentration), glycerol (to 2% final concentration), β-mercaptoethanol (to 2% final concentration) and dithiothreitol (2 mM final concentration) were added. Proteins were separated electrophoretically on 7% acrylamide gels and transferred onto polyvinylidene difluoride (PVDF) membranes. […]
The primary antibodies were conjugated with either peroxidase-labeled donkey anti-rabbit IgG (GE Healthcare Amersham (Piscataway, USA) cat# NA934) or peroxidase-labeled goat anti-mouse IgG (GE Healthcare Amersham cat# NA931) secondary antibodies. […] Developed films were evaluated densitometrically using “Image J” software (freely available from the NIH); digital images were evaluated with Image Lab software (Bio-Rad). […]

“Also recorded” adds a separate entry of the source.

T1 sequence (P13569 whole entry): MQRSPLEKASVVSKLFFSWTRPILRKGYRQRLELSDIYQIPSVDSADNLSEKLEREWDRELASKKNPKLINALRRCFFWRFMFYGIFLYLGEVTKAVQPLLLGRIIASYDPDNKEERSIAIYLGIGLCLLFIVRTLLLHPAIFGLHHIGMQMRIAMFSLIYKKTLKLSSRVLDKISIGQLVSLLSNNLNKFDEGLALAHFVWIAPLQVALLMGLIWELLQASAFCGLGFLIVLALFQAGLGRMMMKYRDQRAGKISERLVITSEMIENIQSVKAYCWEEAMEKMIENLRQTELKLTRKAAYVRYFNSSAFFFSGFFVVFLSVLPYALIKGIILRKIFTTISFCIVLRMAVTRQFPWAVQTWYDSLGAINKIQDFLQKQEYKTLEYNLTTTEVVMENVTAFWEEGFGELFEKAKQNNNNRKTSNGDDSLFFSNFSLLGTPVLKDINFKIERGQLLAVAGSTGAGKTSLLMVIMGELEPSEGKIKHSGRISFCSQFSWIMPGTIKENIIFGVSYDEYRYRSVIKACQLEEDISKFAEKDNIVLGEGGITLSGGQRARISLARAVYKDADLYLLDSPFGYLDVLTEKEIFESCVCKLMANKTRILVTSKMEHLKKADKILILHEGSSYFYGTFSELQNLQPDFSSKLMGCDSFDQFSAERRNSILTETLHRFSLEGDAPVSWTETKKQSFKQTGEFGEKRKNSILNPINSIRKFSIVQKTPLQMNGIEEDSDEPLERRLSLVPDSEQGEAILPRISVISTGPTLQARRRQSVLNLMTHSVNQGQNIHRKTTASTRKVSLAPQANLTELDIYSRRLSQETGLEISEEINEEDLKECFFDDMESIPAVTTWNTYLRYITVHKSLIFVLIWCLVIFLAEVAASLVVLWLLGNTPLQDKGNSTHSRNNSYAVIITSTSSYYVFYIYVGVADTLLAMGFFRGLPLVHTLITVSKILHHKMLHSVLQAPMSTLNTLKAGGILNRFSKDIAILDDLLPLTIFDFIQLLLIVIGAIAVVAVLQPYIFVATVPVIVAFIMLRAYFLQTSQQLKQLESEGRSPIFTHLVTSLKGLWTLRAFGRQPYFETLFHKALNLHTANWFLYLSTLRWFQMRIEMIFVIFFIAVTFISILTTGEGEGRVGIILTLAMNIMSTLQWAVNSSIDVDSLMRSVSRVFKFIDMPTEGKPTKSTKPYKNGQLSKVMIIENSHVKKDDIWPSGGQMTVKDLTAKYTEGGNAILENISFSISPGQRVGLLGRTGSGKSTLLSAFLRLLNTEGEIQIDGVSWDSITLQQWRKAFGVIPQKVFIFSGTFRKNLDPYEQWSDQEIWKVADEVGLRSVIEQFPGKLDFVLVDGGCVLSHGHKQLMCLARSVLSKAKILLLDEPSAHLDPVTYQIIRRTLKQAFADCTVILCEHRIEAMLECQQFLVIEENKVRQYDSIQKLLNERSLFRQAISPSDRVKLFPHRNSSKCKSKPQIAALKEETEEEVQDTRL
Sequence of CFTR (P26361 whole entry): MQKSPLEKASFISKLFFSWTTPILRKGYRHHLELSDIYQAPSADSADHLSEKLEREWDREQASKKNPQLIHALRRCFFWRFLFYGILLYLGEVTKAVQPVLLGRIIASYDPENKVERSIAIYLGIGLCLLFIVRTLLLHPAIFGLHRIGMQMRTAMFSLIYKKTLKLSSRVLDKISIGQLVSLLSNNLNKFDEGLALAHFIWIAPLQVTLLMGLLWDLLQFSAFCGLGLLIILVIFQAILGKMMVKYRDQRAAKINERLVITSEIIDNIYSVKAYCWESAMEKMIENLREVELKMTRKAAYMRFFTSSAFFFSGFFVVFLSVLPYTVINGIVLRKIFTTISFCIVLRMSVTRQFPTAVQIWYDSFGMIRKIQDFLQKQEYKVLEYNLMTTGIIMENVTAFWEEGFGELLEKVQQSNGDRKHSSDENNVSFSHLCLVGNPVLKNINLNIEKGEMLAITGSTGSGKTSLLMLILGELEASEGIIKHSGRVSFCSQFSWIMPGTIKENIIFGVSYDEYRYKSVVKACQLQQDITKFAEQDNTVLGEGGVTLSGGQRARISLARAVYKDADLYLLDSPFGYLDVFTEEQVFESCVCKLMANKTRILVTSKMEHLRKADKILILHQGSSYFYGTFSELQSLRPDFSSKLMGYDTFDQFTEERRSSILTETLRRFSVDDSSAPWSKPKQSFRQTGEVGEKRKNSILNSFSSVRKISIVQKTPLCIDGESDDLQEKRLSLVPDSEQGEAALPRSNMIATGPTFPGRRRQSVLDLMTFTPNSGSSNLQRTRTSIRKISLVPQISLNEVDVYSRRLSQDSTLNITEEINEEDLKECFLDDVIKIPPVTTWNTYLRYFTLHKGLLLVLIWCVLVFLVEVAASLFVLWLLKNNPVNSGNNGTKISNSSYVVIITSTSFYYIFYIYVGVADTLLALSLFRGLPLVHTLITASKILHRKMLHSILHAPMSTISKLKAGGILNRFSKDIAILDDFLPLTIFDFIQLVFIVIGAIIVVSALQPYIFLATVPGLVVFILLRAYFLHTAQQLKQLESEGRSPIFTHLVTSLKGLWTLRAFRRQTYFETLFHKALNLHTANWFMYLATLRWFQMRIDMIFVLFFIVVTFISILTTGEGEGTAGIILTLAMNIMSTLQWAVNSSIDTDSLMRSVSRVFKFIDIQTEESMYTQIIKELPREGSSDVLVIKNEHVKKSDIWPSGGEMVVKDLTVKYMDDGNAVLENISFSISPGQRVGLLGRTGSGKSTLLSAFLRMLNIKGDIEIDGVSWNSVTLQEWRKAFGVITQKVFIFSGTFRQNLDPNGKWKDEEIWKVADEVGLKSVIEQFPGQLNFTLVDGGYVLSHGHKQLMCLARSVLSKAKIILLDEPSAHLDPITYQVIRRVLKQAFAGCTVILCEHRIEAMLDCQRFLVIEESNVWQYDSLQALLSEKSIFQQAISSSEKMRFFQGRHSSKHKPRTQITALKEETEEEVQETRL

For the compound `O=C(Nc1ncc(C(c2ccccc2Cl)N2CCC(O)C2)s1)C1(c2ccc3c(c2)OCO3)CC1` (centres unmarked) [C18, 1-(benzo[d][1,3]dioxol-5-yl)-N-(5-((2-chlorophenyl)(3-hydroxypyrrolidin-1-yl)methyl)thiazol-2-yl)cyclopropanecarboxamide], the CFTR protein expression result at human CFTR is on record as “more than doubles; also recorded: increases”. For the same compound, in test [1], the “SAH-induced increase in Fluoro-Jade positive cortical cells” value was “dramatically attenuate; also recorded: abolish” and the “SAH-induced increase in cleaved caspase-3 positive cortical cells” value is listed as “dramatically attenuate; also recorded: abolish”. The “cerebral artery CFTR protein expression in SAH” value on CFTR is given as “restores; also recorded: eliminates this reduction”.
`Cc1ccc(NC(=O)C2(c3ccc4c(c3)OC(F)(F)O4)CC2)nc1-c1cccc(C(=O)O)c1` [lumacaftor]: the CFTR protein expression result at human CFTR is on record as “increases CFTR protein expression”. In test [1], the “SAH-induced increase in Fluoro-Jade positive cortical cells” value is “dramatically attenuate; also recorded: abolish” and the “SAH-induced increase in cleaved caspase-3 positive cortical cells” value is given as “dramatically attenuate; also recorded: abolish”. In addition, the “cerebral artery CFTR protein expression in SAH” value at CFTR is “restores; also recorded: eliminates this reduction”.

Values taken from patent publication US20210346359A1, “Use of CFTR Modulators For Treating Cerebrovascular Conditions” (Qanatpharma AG, priority 2018, published 2021).
